Measurements reported in patent US20250304649A1, “SCN1B MIMETIC PEPTIDES AND USES THEREOF” (Virginia Tech Intellectual Properties, Inc., priority 2022, published 2025).
Entries after “also recorded” stand apart in the source; their conditions may differ. Positions of bridges follow the written chain, without caps; N, C: chain ends. No end group written: not given here.

Assays:
[1] = tested on: regulated intramembrane proteolysis (RIP) of β1 in 1610β1 cells; assay: Western blot of full-length β1 and C-terminal fragment (regulated intramembrane proteolysis) in 1610β1 cells; assay type: cell-based, Chinese hamster; details: for CTF levels on immunoblots, peptide alone: without DAPT
Procedure: (FIG. 8A) Representative Western blot showing 0.1% DMSO, 50 μM βadp1, 1 μM DAPT, and 50 μM+1 μM DAPT treatments at 6 hours, 24 hours, and 48 hours of treatment. Cells were plated and treated simultaneously, and then lysate was collected at the indicated 6, 24, or 48 hours. Detection of the β1 subunit was done using a c-terminal antibody “Na Channel β1 Subunit (D4Z2N) Rabbit mAb #13950” (Cell Signaling Technologies). This allowed for labeling of both the full length β1 protein (37 kD) and the C-terminal fragment (CTF) (19 kD). […] (FIG. 8B) Quantification of the 37 kD full-length β1 protein at 6, 24, and 48 hours. All results are normalized to DMSO treatment at each timepoint and then shown as a ratio of DAPT+βadp1/DAPT to account for the DAPT treatment in each. […] (FIG. 8C) Quantification of the 19 kD CTF of β1. All results are normalized to DMSO treatment at each timepoint and then shown as a ratio of DAPT+βadp1/DAPT to account for the DAPT treatment in each.
β1 abundance was further examined using Western blotting (WB) at time points of 6, 24, and 48 hours after initial βadp1 treatment. Cells were plated in 35 mm cell culture dishes and treated with 50 μM βadp1 or βS2L solubilized in a final concentration of 0.1% DMSO at the time of plating. The control was DMSO vehicle. To determine whether βadp1 affects the RIP of β1, cells were also treated with 1 μM DAPT, an inhibitor of γ-secretase, to cause an accumulation of the intermediate substrate in the RIP of β1, the CTF. Whole cell lysate was collected and run on stain free gels and transferred to a Polyvinylidene difluoride (PVDF) membrane. Membranes were labeled with an antibody against the c-terminal domain of β1 (Cell Signaling Technologies).
β1 has been reported to undergo a process of […] intramembrane proteolysis (RIP) by BACE1 and γ-secretase, ultimately resulting in the production of a soluble intracellular domain (ICD) that is translocated to the nucleus, with correlated effects on gene transcription. Applicant sought to determine if the β1 targeting peptides affect the RIP process in 1610β1 cells and whether any effect relates to changes in the distribution and abundance of β1 immunolabeling we observed in this model. First, to confirm that β1 underwent RIP in 1610β1 cells, Applicant treated cells with the y-secretase inhibitor DAPT. In the presence of DAPT, it was noted that the 19 kD Carboxyl-Terminal Fragment (CTF) accumulated in Western blots from cells sampled at 6, 24 and 48 hours following initiation of treatment, similar to results published by others in CHL cells and MDA-MB-231 breast cancer cells (FIG. 12A). Without DAPT treatment the 19 kD CTF was virtually non-detectable at any of the time points sampled (FIG. 12A). Next, Applicant co-treated cells with DAPT in the presence of βadp1 or βS2L. […]

[2] = tested on: β1 protein (SCN1B) in 1610β1 cells; assay: Confocal immunofluorescence of β1 abundance and Biotin-βadp1 uptake in 1610β1 cells; assay type: cell-based, Chinese hamster; details: for upregulation of β1 protein 48 hours after treatment: 50 μM; for upregulation of β1 protein 48 hours after treatment / β1 abundance (immunolabeling) at 48 hours compared to DMSO treated cells: FIG. 7; for β1 abundance (immunolabeling) at 48 hours compared to DMSO treated cells: 10 μM; for upregulation of β1 protein 48 hours after treatment / β1 abundance (immunolabeling) at 48 hours compared to DMSO treated cells / β1 abundance at cell-cell borders / in the membrane: 48 hours; for β1 abundance at cell-cell borders / in the membrane: FIG. 7D-7E
Procedure: Cells were then allowed to grow for 1-48 hours, after which they were fixed with 4% paraformaldehyde. […] White scale bar: 10 μm
FIGS. 7A-7D show 1610β1 cells treated for 48 hours with 10 μM concentrations of DMSO or βadp1 derived peptides (FIG. 7A) 0.1% DMSO, (FIG. 7B) βadp1, (FIG. 7C) LQLEED (SEQ ID NO: 4), (FIG. 7D) βS2L.
Next, the abundance of β1 protein was evaluated using confocal microscopy immunofluorescence (IF). 1610β1 cells were plated in 12 well plates on lysine coated coverslips and allowed to grow for 48 hours. Cells were then treated with a 50 μM concentration of βadp1, βS2L, βS2C, or LQLEED (SEQ ID NO: 4) or βadp1 conjugated with a Biotin molecule (B-βadp1) solubilized in a final concentration of 0.1% dimethyl sulfoxide (DMSO). Controls for the experiment were cells treated with only 0.1% DMSO vehicle. Cells were then fixed in 4% paraformaldehyde and stained with an antibody against the extracellular domain of β1 (Virginia Tech) and a streptavidin-Alexa647 (Invitrogen) conjugate to stain B-βadp1.
Applicant undertook immunolabeling studies to further probe the effect of the mimetic peptides on 1610β1 cells over time courses of up to 2 days. […] Prompted by this observation we examined what effects of 10 μM concentrations of LQLEED (SEQ ID NO: 4) and βS2L on β1 immunolabeling at or 48 hours over the same time course.

[3] = tested on: 1610β1 cells (β1/SCN1B-mediated cell adhesion); assay: Electric cell-substrate impedance sensing (ECIS) of cell adhesion in 1610β1 monolayers; assay type: cell-based, Chinese hamster; details: for resistance compared to vehicle over the entire time course / resistance compared to DMSO vehicle at 5 hours / resistance compared to DMSO vehicle at (up to) 20 hours / resistance compared to DMSO vehicle at 40 hours: 10 μM; for resistance compared to vehicle over the entire time course: 40 hour time course; for resistance compared to DMSO vehicle at 5 hours / resistance compared to DMSO vehicle at (up to) 20 hours / resistance compared to DMSO vehicle at 40 hours: single treatment at plating; for acute de-adhesion effects: dimerized peptides, ECIS time course
Description: FIGS. 3A-3E show βadp1 binding and identification of βadp1 derived smaller peptide fragments with similar function. […] Positive and negatively charged moieties on the adhesion surface of the β1 Ig loop are shown in red and blue (as represented in greyscale), respectively. […] Peptides towards the carboxyl terminus of βadp1, especially those incorporating hydrophobic leucine residues, show the most adhesion reducing activity. Based on the ECIS time course data, and predictions from molecular modeling of likely binding in the hydrophobic pocket β1/SCN1B Ig domain binding surface, the sequence LQLEED (SEQ ID NO: 4) was selected as a short peptide candidate drug molecule.
In this Example to evaluate the long term effects (effects after more than 2 hours post treatment) of βadp1 and derivatives on β1 cell adhesion, electric cell-substrate impedance sensing (ECIS) was employed. ECIS measures the impedance of electric current. 4000 Hz is the recommended frequency for measuring changes in impedance between cells, assaying intercellular adhesion levels, as mediated by β1. […] To assist in focusing on the active sequence of βadp1 used to create the other peptides in this disclosure, ECIS experiments were completed using multiple small sequences as shown in FIGS. 3A-3E. From this, and in combination with the in silico experiments, it was determined that LQLEED (SEQ ID NO: 4) was the optimal sequence. […] For the other dimerized peptides, ERF residues were included on the c-terminal end of the LQLEED (SEQ ID NO: 4) peptide because residue R85 in SCN1B is associated with atrial fibrillation. Cells were plated in 8 well plates lined with 40 electrodes and treated with a 10 μM concentration of βadp1 in a final concentration of 0.1% DMSO at the time of plating or DMSO vehicle.
βadp1 is a peptide mimetic of a 20 amino acid (aa) sequence from the immunoglobulin (Ig) domain of the voltage gated sodium channel (VGSC) β1 subunit involved in adhesive interactions. […] Applicant synthesized a dimerized variant of the 20 aa βadp1 (FIG. 1) and tested it in monolayers of 1610 Chinese Hamster Lung cells stably expressing the β1 subunit (1610ß1) using electric cell substrate impedance sensing (ECIS) to determine whether it acted as an agonist that promoted β1-mediated adhesion.

[4] = tested on: β1-mediated adhesion and gap junction-associated VGSC activity in cultured cells; details: 1 to 2 hours; cited from earlier work
[5] = tested on: Isolated guinea pig hearts; details: cited from earlier work
[6] = tested on: 1610β1 cells (β1/SCN1B-mediated cell adhesion); assay: Electric cell-substrate impedance sensing (ECIS) of cell adhesion in 1610β1 monolayers; assay type: cell-based, Chinese hamster
[7] = tested on: parental cell line of 1610 cells expressing negligible levels of β1; assay: ECIS in parental 1610 cells; assay type: cell-based, Chinese hamster
[8] = isolated guinea pig hearts treated acutely

Row | Compound | upregulation of β1 protein 48 hours after treatment [2] | resistance compared to vehicle over the entire time course [3] | resistance compared to DMSO vehicle at 5 hours ([3]; 5 hours) | resistance compared to DMSO vehicle at (up to) 20 hours [3] | acute de-adhesion effects [3] | β1 abundance (immunolabeling) at 48 hours compared to DMSO treated cells [2] | CTF levels on immunoblots, peptide alone [1] | resistance compared to DMSO vehicle at 40 hours [3] | β1 abundance at cell-cell borders / in the membrane [2] | other results
1 | C[C@H](NC(=O)Cc1cc(F)cc(F)c1)C(=O)N[C@H](C(=O)OC(C)(C)C)c1ccccc1 [DAPT, reference compound] |  |  |  |  |  |  |  |  |  | accumulation of the 19 kD C-terminal fragment (CTF) of β1 with DAPT ([1]; 1 μM DAPT, 6, 24 and 48 hours, versus no DAPT): accumulation of the 19KD CTF; also recorded: accumulated
2 | CLQLEEDERF-G-LQLEEDERFC (CLQLEEDERFGLQLEEDERFC; disulfide 1-21 (inferred)) [βS2C, dimeric peptide with NT and CT cysteines, cyclizable via disulfide bonding] | upregulation of β1 protein | increased resistance throughout the time course | increase resistance; also recorded: significantly elevated over vehicle control | increased resistance | no acute de-adhesion effects detectable |  |  |  |  | 
3 | FVKILRYENEVLQLEEDERF [βadp1] |  |  | decrease resistance | decrease resistance; also recorded: significantly decreased resistance; also recorded: significant decreases in resistance |  | increase in β1 abundance | Neither βadp1 or βS2L alone appeared to have consistent effects | no significant difference; also recorded: effects of βadp1 had reversed; also recorded: no longer significantly below those of controls |  | β1 levels at 48 hours ([2]; cells monitored up to 48 hours from the initial treatment): notably increased; gap junction-associated VGSC activity [4]: inhibits; β1-mediated adhesion [4]: inhibits β1-mediated adhesion; regulated intramembrane proteolysis (RIP) of β1 ([1]; inferred from CTF accumulation with DAPT): increasing the amount of RIP that β1 undergoes; also recorded: increases the RIP of β1; ECIS-assayed adhesion ([3]; 10 and 100 μM treatments): significant decreases in ECIS-assayed adhesion; normalized resistance of monolayers (marker of cell adhesion mediated by β1/SCN1B) relative to control ([3]; 1610 cells exogenously expressing β1/SCN1B, over 20 hours, FIG. 3D): significantly reduces normalized resistance; perinexal adhesion at early time-points ([5]; <2 hours): perinexal de-adhesion; conduction velocity [5, 8]: decreased conduction velocity; perinexus width [5, 8]: widened perinexus
4 | FVKILRYENEVLQLEEDERGFVKILRYENEVLQLEEDER [Db1-βadp1, dimerized version of βadp1 with a glycine linker] |  |  |  |  |  |  |  |  |  | concentration dependence of the increase in resistance ([6]; 100 μM versus 50 μM, 24 hours): concentration dependent effect; also recorded: higher for 100 μM Db1-βadp1 versus the 50 μM treatment; resistance compared to DMSO/vehicle control ([6]; Db1-βadp1 100 μM and 50 μM, over 24 hours of treatment, n=2, FIG. 4): increased resistance; intercellular resistance in parental 1610 cells [7]: did not result in increased intercellular resistance
5 | LQLEED [short monomeric peptide towards the carboxyl terminus of βadp1] |  |  | decrease resistance; also recorded: decreased levels of intercellular resistance | decreased resistance; also recorded: significant decreases in resistance |  | increase in β1 abundance; also recorded: appeared to increase |  |  | occasional evidence of increased intensity of immunolabeling signal at cell borders | 
6 | LQLEEDERF-G-LQLEEDERF (LQLEEDERFGLQLEEDERF) [βS2L] | upregulation of β1 protein | increased resistance throughout the time course; also recorded: significantly increasing resistance | increase resistance; also recorded: significantly elevated over vehicle control | increase resistance | no acute de-adhesion effects detectable | increase in β1 abundance; also recorded: cell-wide increases in β1 immunolabeling | Neither βadp1 or βS2L alone appeared to have consistent effects | continues to increase resistance | increase the 1 abundance at cell-cell borders; also recorded: increase the β1 present in the membrane; also recorded: distinctive increase in signal at cell borders | resistance relative to that after the LQLEED inhibitory monomer ([3]; 5 hours): 5-6 fold
